US20080318803A1, “Biomarkers for Monitoring Impdh Pathway Inhibition” (VERTEX PHARMACEUTICALS, priority 2004, published 2008)
Like-named read-outs stand apart in the source and are kept apart here.

How the values were obtained:
[1] = test system: PBMCs PHA-T cell; assay: PBMC proliferation assay (PHA-stimulated T cells); format: cell-based, human; settings: for IC50: Homo sapiens, PBMC
Excerpt: Monitoring gene expression patterns offers an alternative approach for optimizing the therapeutic window as compared with the traditional method of measuring drug concentrations in blood and correlating either the AUC or Cmax levels with a clinical response. Towards that end, the inventors have comprehensively evaluated several genes affected by treatment with two distinct IMPDH inhibitors in vitro, as potential readouts for assessing their biological activity. The genes that are listed in Tables I through VIII are particularly useful in the present invention. These genes were identified using the specific methods as follows: Most cell culture reagents, unless specified otherwise, were obtained from Gibco-BRL or JRH Biologicals. Complete RPMI was prepared by adding up to a final of 10% heat-inactivated fetal bovine serum (FBS), 55 μM β mercaptoethanol, 50 units/mL penicillin with 50 μg/mL streptomycin, 300 μg/ml L-glutamine and 10 mM HEPES pH 7.5 to RPMI1640. Stock solutions of Phyto-hemagglutinin (PHA-P, Difco) was prepared in FBS-free RPMI and stored at −20° C. VX-944, and MPA (Sigma-Aldrich or Calbiochem), were dissolved in DMSO at a concentration of 20 mM and stored at −20° C.
Peripheral blood mononuclear cells (PBMCs) and T cells were isolated as follows: Human venous blood was drawn from healthy volunteers using heparin as an anti-coagulant. PBMCs were isolated from blood by centrifugation over Ficoll-paque gradient or CPT tubes (Becton-Dickinson, Calif.), using standard conditions. PBMCs were harvested, washed and resuspended in complete RPMI, counted and diluted to 1×10^6 cells/ml.
In order to monitor PBMC proliferation assay, human PBMC derived T cells (5×10^4 cells/well), were added to 96-well plates. PHA was added up to a final concentration of 10-20 μg/mL per well for stimulating T cells. The mitogen SPAS was used at a final concentration of 2 mg/mL. DMSO was maintained at a final concentration of 0.1%.

[2] = test system: HL-60 cells; assay: Affymetrix array transcript profiling in HL-60 cells, 14 h (early) and 30 h (late); format: cell-based, human
Description: The above agents were tested in HL-60 cells at a concentration of 500 nM for VX-944 and 1000 nM for MPA or with 0.1% DMSO as the vehicle control. The cells were harvested at 14 or 30 hours post addition of compound or vehicle. Briefly, the culture medium was removed at the appropriate time-points and the cells washed with PBS. The cells were then harvested, and pelleted by-gentle centrifugation. The supernatant was discarded and the pellets snap-frozen on an ethanol/dry-ice slurry. RNA was isolated from cells by using a RNEasy kit from Qiagen. RNAs were quality controlled using the Agilent 2100 Bioanalyzer to determine the presence of RNAs.
Data from the arrays corresponding to VX-944 and MPA at the two time-points—14 hours (Early) and 30 hours (Late) were analyzed using Spotfire™, microarray data analysis software. Some of the data analysis parameters used are outlined below:
a) All the arrays were normalized by using trimmed means, with a 5% exclusion limit
b) Only genes present in at least 5 of the 6 chips used for the analyses were included in the genesets
c) Only statistically significant genes (ANOVA, p<0.05) were included in the final analyses to generate gene lists.
At the late (30 h) time-point, 335 genes were identified as overlapping between the VX-944 and MPA datasets. […] With MPA 66 genes are in common between the two time-points. As to a comparison between the two data sets, of the 102 genes modulated by VX-944 and the 66 genes modulated by MPA, 43 genes […]. To add additional value to the gene lists and provide additional information to the investigator, the genes underlying each of these expression patterns was queried against publicly available databases. These databases included Locus Link, Gene Cards, KEGG, GO annotations, OMIM, PubMed. The information gathered from such an analysis is organized below in data tables.

[3] = test system: genes responsive to IMPDH inhibition; assay: Gene chip analysis of genes responsive to IMPDH inhibition (18 gene chips, 8793 genes); format: cell-based; settings: for No. genes modulated: of 3421 genes common to all 18 gene chips
Excerpt: The present invention is directed to methods and compositions for using biomarkers that are responsive to changes in IMPDH activity levels.

[4] = test system: PBMC cells; assay: Gene expression changes in resting and PHA-stimulated (proliferating) PBMCs treated with VX-944; format: cell-based, human; settings: proliferating lymphocytes; out of 67 genes
[5] = biological target: both IMPDH isozymes; settings: cited from earlier work
[6] = test system: human peripheral lymphocytes; settings: cited from earlier work
[7] = read-out: PBMCs PHA-T cell IC50
[8] = read-out: PHA-T cell IC50 in the presence of guanosine
[9] = common to early (14 h) and late (30 h)
[10] = treated vs. DMSO, early (14 h), VX-944 500 nM, MPA 1000 nM

Row | SMILES | Ratio of PHA-T cell IC50 in the presence and absence of guanosine [1] | IC50 [1, 7] [nM] | IC50 [1, 8] [nM] | Number of Genes Downregulated [2, 9] | Number of Genes Total [2, 9] | Number of Genes Upregulated [2, 9] | Number of Genes Downregulated ([2]; treated vs. DMSO, early (14 h)) | Number of Genes Total ([2]; treated vs. DMSO, early (14 h)) | Number of Genes Upregulated [2, 10] | Number of Genes Downregulated ([2]; treated vs. DMSO, late (30 h)) | Number of Genes Total ([2]; treated vs. DMSO, late (30 h)) | Number of Genes Upregulated ([2]; treated vs. DMSO, late (30 h)) | No. genes modulated: Decreased [3] | No. genes modulated: Increased [3] | No. genes modulated [3] | also measured
1 | COc1c(C)c2c(c(O)c1C/C=C(\C)CCC(=O)O)C(=O)OC2 [MPA, Mycophenolic acid] | >224 | 89 | > 20000 | 0 | 66 | 66 | 0 | 105 | 105 | 560 | 1162 | 602 | 36 | 39 | 75 | FOLD CHANGE (MPA, EARLY) ([2]; gene ALG6): 1.5; FOLD CHANGE (MPA, EARLY) ([2]; gene C6orf18): 1.5; FOLD CHANGE (MPA, EARLY) ([2]; gene C8orf2): 1.5; FOLD CHANGE (MPA, EARLY) ([2]; gene C21orf4): 1.5; FOLD CHANGE (MPA, EARLY) ([2]; gene CLECSF5): 1.5; FOLD CHANGE (MPA, EARLY) ([2]; gene FBXO5): 1.6; FOLD CHANGE (MPA, EARLY) ([2]; gene FLJ10852 (HIP14L)): 1.5; FOLD CHANGE (MPA, EARLY) ([2]; gene KLHL2): 1.6; FOLD CHANGE (MPA, EARLY) ([2]; gene MGC13024): 1.5; FOLD CHANGE (MPA, EARLY) ([2]; gene MLC-B (MRLC2)): 1.8; FOLD CHANGE (MPA, EARLY) ([2]; gene RAGD): 1.5; FOLD CHANGE (MPA, EARLY) ([2]; gene RPAC2 (POLR1D)): 1.5; FOLD CHANGE (MPA, EARLY) ([2]; gene SNX10): 1.5; FOLD CHANGE (MPA, EARLY) ([2]; gene TMEM8): 1.7; FOLD CHANGE (MPA, EARLY) ([2]; gene TOPK): 1.5
2 | CC[C@H](CC#N)OC(=O)N[C@@H](C)c1cccc(NC(=O)Nc2ccc(-c3cnco3)c(OC)c2)c1 [VX-944] | 373 | 21 | 7800 | 0 | 102 | 102 | 119 | 291 | 172 | 0 | 434 | 434 | 60 | 46 | 106 | potency in cell assays relative to MPA ([1]; VX-944 vs MPA): 3-4 fold; number of genes implicated in cancers that are down-regulated [4]: 4; Ki [5]: 7 to 10 nM; inhibition of lymphocyte proliferation on addition of guanosine ([6]; 50 μM guanosine): alleviated; potency in inhibiting lymphocyte proliferation compared with other IMPDH inhibitors ([6]; stimulated with either T or B-cell mitogens): more potent than VX-497 or MPA; IC50 ([6]; stimulated with either T or B-cell mitogens, read-out: IC50, inhibition of proliferation of human peripheral lymphocytes): 20 to 100 nM
3 | COc1cc(NC(=O)Nc2cccc(CNC(=O)O[C@H]3CCOC3)c2)ccc1-c1cnco1 [VX-497] | 62 | 105 | 6500 |  |  |  |  |  |  |  |  |  |  |  |  | 
